Earlier results, collected in patent publication US20100215763A1, “Method of using the body's alternative cellular energy pigments (ACE-pigments) in the therapy of diseases” (priority 2009, published 2010).

System: HSV and HZV skin lesions

Cc1cc2nc3ccc(N(C)C)cc3nc2cc1N.Cl [neutral red]
healing of treated HSV and HZV skin lesions (neutral red applied to active lesions followed by UV illumination): expedited healing | healing of distant HSV lesions (patients with lesions at more than one location, neutral red and UV limited to a single lesion): expedited healing in all lesions
